Where two headings read alike, the source gives them in different places. Each block holds one compound with its values, some of them ahead of it.
Legend:
[1] = test system: panel of approximately 60 different human tumor cell lines; assay: National Cancer Institute drug screen, mean-graph parameters; type: cell-based; details: mean over cell line panel, two days exposure; for GI50: Homo sapiens, 48 h, read-out: Tumor cell Mean log GI50 (converted)
Description: Compounds of the present invention also have been subjected to the drug screening procedure employed by the National Cancer Institute for the screening of drugs having possible anticancer utility. The screening procedure uses a diverse, disease-oriented panel consisting of approximately 60 different human tumor cell lines organized into disease-specific subpanels. The compounds of the present invention were tested over a range of concentrations for cytotoxic or growth-inhibitory effects against cell lines comprising the panel. The eight subpanels represented diverse histologies (leukemias, melanomas, and tumors of the lung, colon, kidney, breast, ovary, and brain).
Compounds of the present invention were tested over a period of two days. During this period the cells were continuously exposed to various concentrations of the compounds tested. The tests produced individual dose-responses, one for each cell line (i.e. one for each example), and the data were represented in dose-response curves. The data provided by these dose response curves were summarized using a mean-graph format.
To produce data for the mean-graph format, a compound concentration that produced a target level response was calculated for each cell line. Three different response parameters were evaluated. The first response parameter was the growth inhibition (“GI50”). GI50 is the concentration of compounds made according to the present invention that produced an apparent 50% decrease in the number of tumor cells relative to the appropriate control (not exposed to the compounds of the present invention) at the end of the incubation period.
The second response parameter was the total growth inhibition (“TGI”). TGI is the concentration at which the number of tumor cells remaining at the end of the incubation period substantially equal the number of tumor cells existing at the start of the incubation period.
The third response parameter was the lethal concentration (“LC50”) LC50 is the concentration of compounds made according to the present invention that caused an apparent 50 percent reduction in the number of tumor cells […] at the start of the incubation period.
In a typical GI50 mean graph, the relative position of the vertical reference line along the horizontal concentration axis was obtained by averaging the negative log10GI50 values for all the cell lines tested against the compound. Horizontal bars were then plotted for the individual negative log10GI50 values of each cell line relative to the vertical reference line. The GI50 graph thus provided a characteristic fingerprint for the compound, displaying the individual cell lines that are proportionately more sensitive than average (bars extending to the right of the reference line) or proportionately less sensitive than average (bars extending to the left of the reference line). The length of a bar was proportional to the difference between the log10GI50 value obtained with the particular cell line and the mean (represented by the vertical reference line).
Similar mean graphs were prepared for the TGI and LC50 response parameters.

[2] = test system: minimum of 12 human cancer cell lines; assay: Hollow fiber assay in mice, point score; type: in vivo; details: for Hollow Fiber Assay IP score: first number of cell; for Hollow Fiber Assay SC score: second number of cell
Description: Compounds satisfying Formulas 1 and 2 also have been tested for in vivo activity in the hollow fiber assay. See Example 12 below for the procedure used for the in vivo tests. Each compound tested was tested against a minimum of 12 human cancer cell lines. Data is reported as % T/C (i.e., the […]) for each of the 2 compound doses against each of the cell lines with separate values calculated for the intraperitoneal and subcutaneous samples, with a target value for % T/C being about 50 or less.
Compounds were selected for further in vivo testing in standard subcutaneous xenograft models on the basis of several hollow fiber assay criteria. These criteria include: (1) a % T/C of 50 or less in 10 of the 48 possible test combinations (12 cell lines×2 sites×2 compound doses); (2) activity at a distance (intrapentoneal drug/subcutaneous culture) in a minimum of 4 of the 24 possible combinations; and/or (3) a net cell kill of 1 or more cell lines in either implant site. To simplify evaluation, a point system has been adopted which allows rapid assessment of a compound's activity. A value of 2 is assigned for each compound dose which results in a 50% or greater reduction in viable cell mass. The intraperitoneal and subcutaneous samples were scored separately so that criteria (1) and (2) could be evaluated. Compounds with a combined IP+SC score≧20, an SC score≧8, or a net cell kill of one or more cell lines were referred for xenograft testing. These criteria have been statistically validated by comparing the activity outcomes of greater than 80 randomly selected compounds in the hollow fiber assay and in the xenograft testing.
This example describes the method used for in vivo testing of mice. Human cancer cells were cultivated in polyvinylidene fluoride (PVDF) hollow fibers. A sample of each cancer cell line was implanted intraperitoneally and subcutaneously in mice. Each mouse received a total of 6 fibers, 3 intraperitoneally and 3 subcutaneously, representing 3 distinct cancer cell lines. Three mice were treated with compounds made according to the present invention at each of two test doses intraperitoneally using a QD×4 treatment schedule. Vehicle controls consisted of 6 mice receiving the compound diluent only The fiber cultures were collected on the day following the last treatment. Anticancer effects were assessed by determining viable cell mass for each of the coil line using a formazan dye (MTT) conversion assay. From this, the % TIC was calculated using the average optical density of the compound-treated samples divided by the average optical density of the vehicle controls. In addition, the net increase in cell mass was determined for each sample as samples of fiber cultures were assessed for viable cell mass on the day of implantation into mice. This allowed cytostatic and cytocidal capacities of these compounds to be assessed.

K562 cells = assay: K562 cell culture and growth assay, 6 day MTT; type: cell-based, human; details: K562, 6 days
Description: This example describes the procedure used for cell culture and growth assays. Human leukemia, Philadelphia-chromosome-positive CML cell line K562 was obtained from ATCC (Rockville, Md.). Cells were cultured in RPMI medium containing 10% fetal calf serum, 2 mM glutamine, 100 units/ml of penicillin and 100 μg/ml streptomycin Cells (2×10^3 cells/well) were incubated with increasing concentrations of compounds of the present invention dissolved in DMSO in a final volume of 200 μl in 96-well plates. Control cells were incubated with medium containing identical concentrations of the DMSO solvent. Growth of K562 cells was quantitated after 6 days by ability of living cells to reduce the yellow dye 3-(4,5-dimethylthiazolyl)-2,5-diphenyltetrazolium bromide (MTT) to a blue formazan product. Further information concerning this procedure is provided by Mossman T., “Rapid Colorimetric Assay for Cellular Growth and Survival—Application to Proliferation and Cytotoxicity Assays,” J. Immunol. Methods 1983, 65:55-63, which is incorporated herein by reference.

p210^bcr-abl = target: T1, p210^bcr-abl (Homo sapiens, UniProt P00519); assay: Inhibition of in vitro auto-phosphorylation of p210^bcr-abl, immune-complex kinase assay; type: biochemical; details: Table 4; for IC50: read-out: IC50 (p210^ber-abi in vitro phosphorylation)
T1 construct: immune complexes containing ^32P-labeled p210^bcr-abl were collected on protein Sepharose beads; BCR (N-terminal part of the breakpoint cluster region protein, natural fusion partner); endogenous in cells; host or cells: K562 cells (lysate, immunoprecipitated on Protein A-Sepharose); the other entry of the earlier key: BCR (P11274, Breakpoint cluster region protein)
T1 sequence (P00519 with tags, fused parts or gaps): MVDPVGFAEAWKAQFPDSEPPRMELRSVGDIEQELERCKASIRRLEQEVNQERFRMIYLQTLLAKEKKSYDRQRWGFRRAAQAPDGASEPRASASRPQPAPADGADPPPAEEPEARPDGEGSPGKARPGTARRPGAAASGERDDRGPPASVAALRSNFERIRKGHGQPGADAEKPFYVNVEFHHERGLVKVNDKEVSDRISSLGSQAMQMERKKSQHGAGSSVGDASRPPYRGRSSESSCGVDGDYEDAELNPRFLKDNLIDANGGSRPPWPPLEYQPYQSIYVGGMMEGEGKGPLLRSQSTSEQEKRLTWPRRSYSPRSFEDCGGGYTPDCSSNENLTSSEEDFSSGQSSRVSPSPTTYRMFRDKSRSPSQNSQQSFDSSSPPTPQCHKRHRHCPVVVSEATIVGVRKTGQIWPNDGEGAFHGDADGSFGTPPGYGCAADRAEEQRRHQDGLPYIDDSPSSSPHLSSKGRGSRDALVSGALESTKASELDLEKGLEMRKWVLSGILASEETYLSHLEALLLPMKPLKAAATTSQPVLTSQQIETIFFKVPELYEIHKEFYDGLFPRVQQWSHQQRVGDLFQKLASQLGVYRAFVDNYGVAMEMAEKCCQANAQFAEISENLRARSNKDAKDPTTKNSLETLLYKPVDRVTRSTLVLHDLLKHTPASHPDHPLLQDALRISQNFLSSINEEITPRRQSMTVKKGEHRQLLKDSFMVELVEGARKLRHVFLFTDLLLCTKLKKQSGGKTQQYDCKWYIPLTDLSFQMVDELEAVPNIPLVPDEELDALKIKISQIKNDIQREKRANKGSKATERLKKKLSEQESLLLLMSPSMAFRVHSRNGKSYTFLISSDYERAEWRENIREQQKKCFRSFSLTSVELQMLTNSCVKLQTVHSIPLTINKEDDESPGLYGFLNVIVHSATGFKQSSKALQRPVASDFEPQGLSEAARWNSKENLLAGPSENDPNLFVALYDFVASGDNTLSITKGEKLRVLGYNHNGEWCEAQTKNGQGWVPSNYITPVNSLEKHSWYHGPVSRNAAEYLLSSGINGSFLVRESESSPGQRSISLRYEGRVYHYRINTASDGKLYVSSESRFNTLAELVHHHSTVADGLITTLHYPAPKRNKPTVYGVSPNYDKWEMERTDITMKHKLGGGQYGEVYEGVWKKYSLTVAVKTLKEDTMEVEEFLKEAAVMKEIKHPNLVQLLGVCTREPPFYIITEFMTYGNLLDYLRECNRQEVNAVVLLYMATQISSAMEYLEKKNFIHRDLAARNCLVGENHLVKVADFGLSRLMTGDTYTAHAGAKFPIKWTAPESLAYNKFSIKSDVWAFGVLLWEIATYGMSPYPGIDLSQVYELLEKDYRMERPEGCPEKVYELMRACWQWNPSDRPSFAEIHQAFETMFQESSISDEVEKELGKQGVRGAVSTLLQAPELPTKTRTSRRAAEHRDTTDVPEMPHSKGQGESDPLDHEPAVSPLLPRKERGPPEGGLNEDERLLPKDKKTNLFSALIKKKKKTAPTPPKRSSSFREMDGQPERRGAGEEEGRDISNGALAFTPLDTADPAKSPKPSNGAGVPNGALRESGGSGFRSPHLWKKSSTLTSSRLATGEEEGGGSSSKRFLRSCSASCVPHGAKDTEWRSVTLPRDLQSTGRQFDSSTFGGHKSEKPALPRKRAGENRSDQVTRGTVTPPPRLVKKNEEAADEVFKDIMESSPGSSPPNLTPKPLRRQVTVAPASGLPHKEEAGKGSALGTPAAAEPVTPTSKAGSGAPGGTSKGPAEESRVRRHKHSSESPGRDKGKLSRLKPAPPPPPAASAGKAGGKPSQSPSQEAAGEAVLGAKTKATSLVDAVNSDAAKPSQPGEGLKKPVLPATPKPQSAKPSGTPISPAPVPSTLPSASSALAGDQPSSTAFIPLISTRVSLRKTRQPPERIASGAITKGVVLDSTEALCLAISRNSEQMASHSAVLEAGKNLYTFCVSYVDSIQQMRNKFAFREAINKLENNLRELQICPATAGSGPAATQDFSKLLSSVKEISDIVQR
Description: Inhibition of in vitro auto-phosphorylation of p210^bcr-abl in immune-complex kinase assays were conducted as follows. K562 cell line cells were washed twice in […]. The washed cells were lysed in PLC lysis buffer 150 mM HEPES (pH 7.5), 150 mM NaCl, 10% (v/v) glycerol, 1% (v/v) Triton X-100, 1.5 mM MgCl2, 1 mM EGTA. 10 μg/ml leupeptin, 10 μg/ml aprotinin, 1 mM sodium orthovanadate. 10 mM sodium pyrophosphate, 100 mM sodium fluoride and 1 mM phenylmethyl sulfonyl fluoride| Cell lysates were centrifuged at 100,000 g for 15 minutes and the supernatant collected. Protein concentrations of the clarified supernatants were determined by the Bradford Protein Assay, and the same quantity of protein was immunoprecipitated from control (vehicle-treated) and drug-treated cells. Cell lysates were incubated and gently rocked at 4° C. for 4 hours overnight with antibodies. Immune complexes were collected by incubation with Protein A-Sepharose beads (Pharmacia, Piscataway N.J.) and immune complexes (beads) were washed three times with HNTG buffer [20 mM HEPES (pH 7.5), 10% glycerol, 0.1% Triton X-100, 150 mM NaCl and 1 mM sodium orthovanadate] to remove unbound material. Bound proteins were boiled for 5 minutes in 2×SDS sample buffer (63 mM Tris-HCl, ph 6.8; 10% glycerol; 2% SDS; 0.0025% bromophenol blue: and […] 2 mercaptoethanol) prior to SDS-PAGE. Proteins were resolved on 4-20% gradient mini gels from Novex Experimental Technology (San Diego, Calif.).
After SDS-PAGE, proteins were electrophoretically transferred onto Immobilon polyvinylidene difluoride (PVDF) membranes (Millipore, Bedford, Mass.) at 250 mA for 4 hours at 4° C. using 2× Tris glycine transfer buffer (50 mM Tris, glycine), 20% methanol and 0.1% SDS. Residual binding sites on the membrane were blocked by incubation in TTS (20 mM Tris pH 7.4, 0.9% NaCl and 0.05% Tween 20) containing 3% BSA overnight at 4° C. or for 4 hours at room temperature. Blots were incubated for 1-1.5 hours with TTS containing 0.3% BSA with 1 μg/ml of mouse anti-P-Tyr, 2 μg/ml of mouse anti-Grb2 or 1 μg/ml of rabbit anti-She antibody. Blots were washed three times for 6 minutes each with TTS containing 0.3% BSA and probed with a 1:1000 dilution of rabbit anti-mouse antibody or directly with [^125I]Protein A (Amersham, Arlington Heights, Ill.) in blocking solutions. Proteins were visualized by autoradiography (exposed for 1-2 days at −70° C.).
The p210^bcr-abl, protein immunoprecipitates were washed twice with HTNG buffer Immunoprecipitates were washed once with 50 mM Tris (pH 7.0) and distributed to each reaction in 20 μl of 20 mM PIPES [piperazine-N,N′-bis(ethanesulfonic acid)] (pH 7.0)−20 mM MnCl2. Then, 10 μl of compounds made according to the present invention at desired concentrations from working stock solution prepared in 20 mM PIPEs (pH 7.0)−20 mM MnCl2 were added to each reaction tube. Reactions were initiated with the addition of 10 μl of [γ-^33P]ATP (10 μCi per sample, 3000 Ci/mmol; Amersham), incubated for 20 minutes at 30° C., stopped by addition of 10 μl of 5×SDS sample buffer, heated at 100° C. for 5 minutes, and analyzed on 4-20% SDS-PAGE and by autoradiography.
To assess the effect of drugs added in vitro on the state of p210^bcr-abl in the immune complexes, K562 cells were labeled with ^32P, lysed in PLC buffer and immune complexes containing ^32P-labeled p210^bcr-abl were collected on protein Sepharose beads and beads were washed four times with HNTG buffer. Immune complexes were divided into several tubes in 30 μl of PLC buffer in the presence of compounds made as described herein.

[3] = Homo sapiens, 144 h, Table 4, read-out: IC50 (6d MTT)
[4] = Homo sapiens, 144 h, Table 9, mean ± S.E., 4 or more experiments, read-out: IC50 (μM) 6dMTT

IC50 (K562 cells; Table 10, mean ± S.E., 4 or more experiments, read-out: IC50 (μM) 6dMTT): 5.65 ± 0.8 µM
SMILES: COC(=O)c1ccc(CCC2=CC(=O)C=CC2=O)cc1 [COOCH3 / 2,5-quinoyl / CH2—CH2 / H]
Tumor Cell Mean log GI50 ([1]; Table 10): −5.00
Tumor Cell Mean log TGI ([1]; Table 10): −4.65
Hollow Fiber Assay IP score ([2]; Table 10): 6
Hollow Fiber Assay SC score ([2]; Table 10): 4
Hollow Fiber Assay Total Ip and SC Score ([2]; Table 10): 10

IC50 (K562 cells; Homo sapiens, 144 h, Table 8, mean+S.E., 4 or more experiments, read-out: IC50 (μM) 6 dMTT): 41.3 µM
SMILES: COC(=O)c1ccc(NCc2cc(OC)ccc2OC)cc1 [COOCH3 / H / CH3]
Tumor Cell Mean log GI50 ([1]; Table 8): −4.40
Tumor Cell Mean log TGI ([1]; Table 8): −4.04

SMILES: O=C(O)c1ccc(/C=C/c2cc(O)ccc2O)cc1O [COOH / 2,5-dihydroxyphenyl / CH═CH / OH]
Tumor Cell Mean log GI50 ([1]; Table 10): >−5.03
Tumor Cell Mean log TGI ([1]; Table 10): >−5.0

IC50 (K562 cells; Table 8, mean+S.E., 4 or more experiments, read-out: IC50 (μM) 6 dMTT): 100 µM
SMILES: COc1ccc(OC)c(CNc2ccc(C(=O)O)cc2)c1 [COOH / H / CH3]
Tumor Cell Mean log GI50 ([1]; Table 8): −4.0
Tumor Cell Mean log TGI ([1]; Table 8): −4.0

IC50 (p210^bcr-abl): 10 µM
IC50 (K562 cells; [3]): 18 µM
SMILES: CC(C)OC(=O)c1cc(NCc2c(O)ccc(O)c2Br)ccc1Cl [Compound 13]

IC50 (p210^bcr-abl): 10 µM
IC50 (K562 cells; [3]): 7 µM
SMILES: CC(C)(C)OC(=O)c1ccc(NCc2cc(O)ccc2O)cc1 [Compound 14]

IC50 (K562 cells; [4]): 6.83 ± 1.68 µM
SMILES: COC(=O)c1ccc(NCc2cc(O)c3ccccc3c2O)cc1 [Compound 18]
GI50 ([1]; Table 9): 8.91 µM
Tumor Cell Mean log TGI ([1]; Table 9): −4.62
Hollow Fiber Assay IP score ([2]; Table 9, intraperitoneal fibers): 4
Hollow Fiber Assay SC score ([2]; Table 9, subcutaneous fibers): 0
Hollow Fiber Assay Total Ip and SC Score ([2]; Table 9): 0

IC50 (K562 cells; [4]): 9.11 ± 1 µM
SMILES: COC(=O)c1ccc(NCC2=CC(=O)c3ccccc3C2=O)cc1 [Compound 19, 4′-methylbenzoate-1′-N-1,4-methylnaphthoquinone amine]
GI50 ([1]; Table 9): 13.8 µM
Tumor Cell Mean log TGI ([1]; Table 9): −4.41

IC50 (K562 cells; [4]): 32 ± 0.5 µM
SMILES: O=C1C=CC(=O)C(CNc2ccc(C(=O)OC34CC5CC(CC(C5)C3)C4)cc2)=C1 [Compound 22, 4′-adamantylbenzoate-1′-N-p-quinone-2-methyl amine]
GI50 ([1]; Table 9): 4.79 µM
Tumor Cell Mean log TGI ([1]; Table 9): −4.72

IC50 (p210^bcr-abl): 25 µM
IC50 (K562 cells; [3]): 26 µM
SMILES: CC(C)OC(=O)c1ccc(CCC2=CC(=O)C=CC2=O)cc1 [Compound 30]

IC50 (p210^ber-abi in vitro phosphorylation) (p210^bcr-abl): No Effect
IC50 (K562 cells; [3]): 10 µM
SMILES: CC(C)OC(=O)c1ccc(CCC2=CC(=O)C(Br)=CC2=O)cc1 [Compound 32]

IC50 (p210^ber-abi in vitro phosphorylation) (p210^bcr-abl): No Effect
IC50 (K562 cells; [3]): 7.5 µM
SMILES: COC(=O)c1ccc(/C=C/C2=CC(=O)C=CC2=O)cc1 [Compound 33]

Reference: patent publication US6943191B1, “Disubstituted lavendustin A analogs and pharmaceutical composition comprising the analogs” (The United States of America as represented by the …, priority 1998, dated 2005)
